Measurements taken from patent US5792466A, “Mimetic insect kinin analogs for insect control” (The United States of America, as represented by the …, priority 1996, dated 1998).
Entries after “also recorded” stand apart in the source; their conditions may differ. Like-named read-outs stand apart in the source and are kept apart here. Ends that are not written are not given here. Peptide text beside a SMILES is read from it. QP = not defined here

Columns and labels:
[1] = tested on: isolated Malpighian tubules of the cricket Acheta domesticus; experiment: Cricket Malpighian tubule secretion bioassay; type: cell-based; conditions: for Cricket Malpighian tubule fluid secretion Maximum response (%): percentage of the response to a supermaximal dose (10 nM) of achetakinin-I, Aib analogs
Excerpt: Crickets were reared as described (Clifford et al., 1977, Ann. Entomol. Soc. Am., 70:69-74) and fed a diet of turkey starter crumbs. Water was provided ad lib. Malpighian tubules were removed from 6-12-day-old adult virgin females. Single tubules were isolated in vitro as described (Coast, G. M., 1988, Physiol. Entomol., 13:381-391). After a 40-min equilibration period, the bathing fluid was changed and the rate of secretion, in picoliters per millimeter length of tubule per minute (pl/mm/min), was determined over 40 min (control rate). Thereafter, the bathing fluid was exchanged for one containing the assay material and the rate of secretion was determined over an additional 40-min period (experimental rate). Diuretic activity was calculated as the difference between control and experimental rates, and results are expressed as a percentage of the response obtained with a supermaximal dose (10 nM) of achetakinin-I assayed alongside the test analogues. All experiments were performed at room temperature (21°-24° C.) (Coast et al., 1990, ibid).

[2] = tested on: angiotensin converting enzyme (ACE) from the housefly Musca domestica; experiment: ACE enzyme hydrolysis trials; type: in vitro ADME; conditions: pH 8.3, 37° C., over 120 minutes
Protocol: Musca ACE (Mr, 67,000) was purified from a soluble extract of adults as described elsewhere (Cornell et al., J. Biol. Chem., in press; Lamango and Isaac, J. Biol. Chem., in press) and yielded enzyme which appeared as a single band by SDS-PAGE. Unless otherwise stated, peptides (12-750 μM, final concentration) were incubated with Musca ACE in 100 mM Tris/HCl, pH 8.3 in the presence of 10 μM ZnCl2 and 0.3M NaCl at 37° C. Reactions (15 μl) were terminated either by heating to 100° C. for 5 min or by the addition of 5 μl of 8% (v/v) TFA, followed by centrifugation (13000 g, Microcentaur) for 2 min and diluted to 100 μl with 0.1% (v/v) TFA before HPLC analysis.
HPLC analysis was performed using a Pharmacia SuperPac Pep-S column (250 mm×4 mm, internal diameter) packed with 5 μm ODS particles. The solvent system comprised elution with 5% acetonitrile in 0.1% (v/v) trifluoroacetic acid for 3 min, followed by a linear increase of the acetonitrile component from 3 to 41% in 11 min (total run time of 14 min).

[3] = tested on: isolated Leucophaea maderae cockroach hindgut; experiment: Cockroach hindgut myotropic bioassay; type: cell-based; conditions: for potency in the cockroach hindgut myotropic assay relative to the most potent of the achetakinins (AK-IV): comparison of threshold concentrations; for Cockroach (Leucophaea maderae) hindgut contraction threshold (pM) ± (S.D.): minimum concentration evoking observable change in contractions, Aib analogs; for threshold activities on the isolated cockroach hindgut bioassay: values in M
Protocol: Leucophaea maderae cockroaches were taken from stock colonies maintained at 27° C. and fed dry dog food ad lib. Cockroach hindguts, free of central nervous system (CNS) tissue, were dissected, immersed in saline, and prepared for recording of myogenic activity as previously described [Holman et al., 1991, Insect Biochem., 21(1):107-112]. Threshold concentrations were determined for each analogue by adding a known quantity of peptide (dissolved in 0.5 ml bioassay saline) to the bioassay chamber containing the hindgut and observing the response on a Gould 2200S oscillograph recorder. The quantity of the peptide analogues was calculated from the values obtained for Phe in the amino acid analysis. The threshold concentration was defined as the minimum concentration of peptide in the chamber required to evoke an observable change in the frequency (50%) or amplitude of contractions (5%) within 1 min and sustained for 3 min. Threshold concentrations were obtained from five cockroach hindguts on 5 consecutive days for each peptide. Quantitative data for dose-response plots were obtained as previously described (Holman et al., 1991, ibid).

[4] = tested on: isolated Leucophaea maderae cockroach hindgut; conditions: cited from earlier work; for potency in hindgut myotropic assay relative to parent or natural insect kinins: literature (Holman et al., 1987; Nachman et al., 1994); for Cockroach (Leucophaea maderae) hindgut contraction threshold (pM) ± (S.D.): naturally occurring achetakinins, Holman et al., 1990, reference (12)
[5] = tested on: isolated Malpighian tubules of the cricket Acheta domesticus; conditions: cited from earlier work; for EC50 / Cricket Malpighian tubule fluid secretion Maximum response (%): naturally occurring achetakinins; for EC50: read-out: Cricket (Acheta domesticus) Malpighian tubule fluid secretion EC50; for Cricket Malpighian tubule fluid secretion Maximum response (%): literature reference (6)
[6] = tested on: angiotensin converting enzyme (ACE) from the housefly Musca domestica; conditions: cited from earlier work
[7] = Lamango et al., Peptides, submitted

CC(C)(NC(=O)[C@H](Cc1ccccc1)NC(=O)[C@@H](N)Cc1ccccc1)C(=O)N[C@@H](Cc1c[nH]c2ccccc12)C(=O)NCC(N)=O [Phe--Phe--Aib--Trp--Gly--NH2] (HELM PEPTIDE1{F.F.[Aib].W.G.[am]}$$$$V2.0)
potency in the Malpighian tubule assay relative to the most potent naturally occurring achetakinin (AK-IV) / endogenous insect kinins ([1]; comparison of EC50 values): greater potency than the endogenous insect kinins | Cricket Malpighian tubule fluid secretion Maximum response (%) [1]: 99% | hydrolysis by angiotensin converting enzyme (ACE) [2]: complete resistance to ACE; also recorded: complete resistance to hydrolysis | potency in the cockroach hindgut myotropic assay relative to the most potent of the achetakinins (AK-IV) [3]: roughly half as potent | potency in the cockroach hindgut myotropic assay relative to the most potent of the achetakinins (AK-IV) ([3]; listed as first analog): one half as potent | Cockroach (Leucophaea maderae) hindgut contraction threshold (pM) ± (S.D.) [3]: 100 pM | threshold activities on the isolated cockroach hindgut bioassay [3]: 100 pM

FYPWG-NH2 [Phe--Tyr--Pro--Trp--Gly--NH2]
potency in hindgut myotropic assay relative to parent or natural insect kinins [4]: equipotent with the parent nonapeptide | potency in cricket Malpighian tubule secretion assay relative to parent nonapeptide ([5]; Coast et al., 1990): equipotent with the parent nonapeptide

SKYVSQK-Phe--Phe--Ser--Trp--Gly--NH2 [Cus-DP-III]
hydrolysis by ACE [6]: hydrolyze

AFHSWG-NH2 [AK-V, A--Phe--His--Ser--Trp--Gly--NH2]
Cockroach (Leucophaea maderae) hindgut contraction threshold (pM) ± (S.D.) [4]: 43 pM | EC50 ([5]; Coast et al., 1990): 0.018 nM | Cricket Malpighian tubule fluid secretion Maximum response (%) [5]: 88%

NNANVFYPWG-NH2 [Cus-DP-II, NNANV-Phe--Tyr--Pro--Trp--Gly--NH2]
hydrolysis by ACE [6, 7]: hydrolyze

QP--Phe--His--Ser--Trp--Gly--NH2 ({QP}-FHSWG-NH2; reading uncertain; also: printed as QP--Phe--His--Ser--Trp--Gly--NH2) [Cus-DP-I]
hydrolysis by ACE [6, 7]: hydrolyze

SGADFYPWG-NH2 [AK-I, SGAD--Phe--Tyr--Pro--Trp--Gly--NH2]
Cockroach (Leucophaea maderae) hindgut contraction threshold (pM) ± (S.D.) [4]: 82 pM | EC50 ([5]; Coast et al., 1990): 0.078 nM | Cricket Malpighian tubule fluid secretion Maximum response (%) [5]: 86%

ALPFSSWG-NH2 [AK-III, ALP--Phe--Ser--Ser--Trp--Gly--NH2]
Cockroach (Leucophaea maderae) hindgut contraction threshold (pM) ± (S.D.) [4]: 270 pM | EC50 ([5]; Coast et al., 1990): 0.324 nM | Cricket Malpighian tubule fluid secretion Maximum response (%) [5]: 108%

NFKFNPWG-NH2 [AK-IV, NFK--Phe--Asn--Pro--Trp--Gly--NH2]
Cockroach (Leucophaea maderae) hindgut contraction threshold (pM) ± (S.D.) [4]: 180 pM | EC50 ([5]; Coast et al., 1990): 0.024 nM | Cricket Malpighian tubule fluid secretion Maximum response (%) [5]: 96%

CC(C)(NC(=O)[C@H](Cc1ccccc1)NC(=O)[C@H](Cc1ccccc1)NC(=O)[C@H](CCCCNC(=O)[C@@H]1CCC(=O)N1)NC(=O)[C@@H]1CCC(=O)N1)C(=O)N[C@@H](Cc1c[nH]c2ccccc12)C(=O)NCC(N)=O [pGlu--Lys(pGlu)--Phe--Phe--Aib--Trp--Gly--NH2] (HELM PEPTIDE1{[Glp].K.F.F.[Aib].W.G.[am]}|PEPTIDE2{[Glp]}$PEPTIDE1,PEPTIDE2,2:R3-1:R2$$$V2.0)
Cricket Malpighian tubule fluid secretion Maximum response (%) [1]: 103% | potency in the cockroach hindgut myotropic assay relative to the most potent of the achetakinins (AK-IV) [3]: three orders of magnitude less potent | Cockroach (Leucophaea maderae) hindgut contraction threshold (pM) ± (S.D.) [3]: 28,000 pM | threshold activities on the isolated cockroach hindgut bioassay [3]: 28000 pM

KFFPWG-NH2 [Lys--Phe--Phe--Pro--Trp--Gly--NH2]
potency in hindgut myotropic assay relative to parent or natural insect kinins [4]: more active than the pentapeptide core and/or the naturally occurring insect kinins

CC(C)(NC(=O)[C@H](Cc1ccccc1)NC(=O)[C@H](Cc1ccccc1)NC(=O)[C@H](CCCCN)NC(=O)[C@@H]1CCC(=O)N1)C(=O)N[C@@H](Cc1c[nH]c2ccccc12)C(=O)NCC(N)=O [pGlu--Lys--Phe--Phe--Aib--Trp--Gly--NH2] (HELM PEPTIDE1{[Glp].K.F.F.[Aib].W.G.[am]}$$$$V2.0)
Cricket Malpighian tubule fluid secretion Maximum response (%) [1]: 101% | potency in the cockroach hindgut myotropic assay relative to the most potent of the achetakinins (AK-IV) [3]: an order of magnitude more potent | Cockroach (Leucophaea maderae) hindgut contraction threshold (pM) ± (S.D.) [3]: 3.5 pM | threshold activities on the isolated cockroach hindgut bioassay [3]: 3.5 pM

AYFSPWG-NH2 [AK-II, AY--Phe--Ser--Pro--Trp--Gly--NH2]
Cockroach (Leucophaea maderae) hindgut contraction threshold (pM) ± (S.D.) [4]: 48 pM | EC50 ([5]; Coast et al., 1990): 0.022 nM | Cricket Malpighian tubule fluid secretion Maximum response (%) [5]: 91%

DPGFSSWG-NH2 [LK-II, DPG--Phe--Ser--Ser--Trp--Gly--NH2]
hydrolysis by ACE [6, 7]: hydrolyze
